According to patent US20140050810A1, “ANTI-OBESITY COMPOSITION COMPRISING LYCIUM CHINENSIS LEAF EXTRACT AND BETAINE AS ACTIVE INGREDIENT” (BIONUTRIGEN CO., LTD., priority 2012, published 2014):
Values joined by “and” are separate entries in the source; they are usually repeats but may differ in a detail not shown here. Equal entries are not always repeated. Marks after values point to notes of the source that are not given here.

Tests used:
[1] = tested on: high-fat diet-induced obesity models; experiment: Effect on liver function: liver weight, hepatic triglyceride, GOT, GPT, pathology in high-fat diet-induced obesity mice; type: in vivo, C57BL/6 mice
Method: (§1) Betaine (JBB21), a Lycium chinensis hot water extract powder (LWE), or a mixture thereof (JBB21+LWE) was orally administered five times a week to high-fat diet-induced obesity models and their effects on obesity, hyperlipidemia and fatty liver were analyzed. JBB21 and LWE were purchased as white and brown powders, respectively, from Bionutrigen, and stored at room temperature before use in the experiment.
(§2) C57BL/6, specific pathogen-free (SPF) mice (male, six weeks old, Division of Biomedical Research, Korea Research Institute of Bioscience and Biotechnology) were used as the test animals.
(§3) For comparison, a negative control and an obese group (high fat diet, HFD) were allowed to freely eat a radiation-sterilized control diet (CD, 10% kcal, Research Diets) and a high fat diet (HFD, 60% Kcal, Research Diets, supplied by Central Lab. Animal), respectively, during the administration of JBB21, LWE, or JBB21+LWE.
(§4) JBB21, LWE, and JBB21+LWE were dissolved in 3.D.W at concentrations of 100 mg/mL, 200 mg/mL, and 100+200 mg/mL, respectively, and each of the solutions was orally administered at a dose of 10 mL/kg five times a week for 56 days.
Mice administered with JBB21, LWE, and JBB21+LWE were euthanized with CO2 gas and underwent laparotomy to excise the livers therefrom. The livers were weighed with a chemical balance, and compared with those from the control and the obese groups. A part of the liver was frozen in liquid nitrogen (LN2) to measure triglyceride and cholesterol contents while the other part was fixed in formalin for pathological analysis.
The frozen liver tissues were homogenized by a homogenizer, followed by centrifugation. The supernatant was analyzed for hepatic triglyceride and cholesterol levels using a triglyceride quantification kit (Cat. #: K622-100), and a cholesterol/cholesteryl ester quantification kit (Cat. #: K603-100), respectively, both commercially available from Biovision.
For pathological analysis, the liver tissue fixed in formalin was embedded in a paraffin block, and sectioned, and stained with H&E (Hematoxylin & Eosin) before observation under an optical microscope (FIG. 1).

[2] = tested on: high-fat diet-induced obesity models; experiment: Subcutaneous fat and total fat in high-fat diet-induced obesity mice; type: in vivo, C57BL/6 mice; details: JBB21 1, LWE 2, JBB21+LWE 1+2 g/kg
Method: as §1, §2, §3, §4
Meanwhile, subcutaneous fat was also measured.
In addition, total fat was measured in the mice administered with JBB21, LWE, or JBB21+LWE.

[3] = Anti-obesity effect of betaine and Lycium chinensis leaf extract powder in human body; type: in vivo; details: Betaine 3 g twice/day 43 days
Method: In order to evaluate the anti-obesity effect of Lycium chinensis leaf extract powder and betaine, subjects' weight, body mass index (BMI), body fat, body fat percentage, and muscle mass were measured prior to the administration of betaine and Lycium chinensis leaf extract powder. Betaine and Lycium chinensis leaf extract powder were separately dissolved in water and administered at a single dose of 3 g and 10 g, respectively, twice a day just before breakfast and supper.
In consideration of their component properties, the Lycium chinensis leaf extract powder, which comprised various components, was administered for 22 days while 43 days was also allocated for the administration of betaine, a single compound. Preventive and therapeutic effects of the two ingredients on obesity were evaluated in view of changes in weight, BMI, body fat, body fat percentage, and muscle mass.

[4] = tested on: high-fat diet-induced obesity models; experiment: Weight change in high-fat diet-induced obesity mice; type: in vivo, C57BL/6 mice; details: JBB21 1, LWE 2, JBB21+LWE 1+2 g/kg
Method: as §1, §2, §3, §4
The negative control (CD), the obese group (HFD), and the test groups (JBB21, LWE, and JBB21+LWE) were monitored three times a week for weight change and diet intake before and during administration.
Each of the solutions of JBB21 and LWE was administered at a single dose of 10 mL/kg five times a week for 56 days. […] The LWE (2 g/kg) group decreased in weight by 6.5% by the last day, but no significant changes in weight had been observed during the test period.

[5] = tested on: high-fat diet-induced obesity models; experiment: Blood leptin, adiponectin and triglyceride levels in high-fat diet-induced obesity mice; type: in vivo, C57BL/6 mice; details: JBB21 1, LWE 2, JBB21+LWE 1+2 g/kg
Method: as §1, §2, §3, §4
Blood samples taken on 56 days after the administration of a mixture of JBB21 and LWE were placed in heparin-coated tubes and stored on ice, followed by centrifugation at 6,000 rpm for 5 min. The plasma thus obtained was analyzed for levels of blood leptin, a hormone marker for obesity, adiponectin, an anti-obesity hormone, and triglyceride levels, using an automated biochemistry analyzer (AU400, Olympus, Japan). Leptin and adiponectin vary in secretion and function depending on the level of fat accumulated in the body. The preventive and therapeutic effects of the mixture according to the present invention were determined in view of plasma levels of leptin and adiponectin.
In this regard, the blood levels of the hormones were measured using Mouse Leptin ELISA kit (Cat. #: MOB00) and Mouse Adiponectin ELISA kit (Cat. #: MRP300), respectively, both commercially available from R&D Systems.

[6] = HFD mice, JBB21 1, LWE 2, JBB21+LWE 1+2 g/kg
[7] = vs. Vehicle Control, JBB21 1, LWE 2, JBB21+LWE 1+2 g/kg
[8] = HFD mice, oral five times a week for 56 days
[9] = compared to the obese group (Vehicle Control)
[10] = L. chinensis leaf extract powder 10 g twice/day 22 days
[11] = L. chinensis leaf extract powder 10 g twice/day 22 days, baseline

For `C[N+](C)(C)CC(=O)O` [JBB21, betaine], the “Liver Wt” value ([1]; HFD mice, 56 days, JBB21 1, LWE 2, JBB21+LWE 1+2 g/kg) was 1511.2 mg, the “liver appearance / hepatic fat deposits (in words)” value ([1]; HFD mice, H&E-stained liver tissue (FIG. 1)) was “clean and healthy livers almost free of fat deposits” and the GOT [1, 6] was 57.1 IU/L. The GPT [1, 6] was 39.8 IU/L, the “GOT IR(%)” value ([1]; compared to the obese group (Vehicle Control), JBB21 1, LWE 2, JBB21+LWE 1+2 g/kg) was 59.8% and the Hepatic triglyceride ([1]; liver homogenate supernatant, HFD mice, JBB21 1, LWE 2, JBB21+LWE 1+2 g/kg) was 3.1389 nmol/mL. The “Liver Wt IR(%)” value ([1]; relative to the obese group (Vehicle Control), JBB21 1, LWE 2, JBB21+LWE 1+2 g/kg) was 25.4%, the “GPT IR(%)” value [1, 7] was 67.2% and the “Hepatic triglyceride IR(%)” value [1, 7] was 10.8%. For the same molecule, the “Subcutaneous Fat” value [2, 8] was 2975.4 ± 530.4 mg, the “Total Fat” value [2, 8] was 7030.2 ± 947.9 mg and the “Subcutaneous Fat IR(%)” value [2, 9] was 14.2%. The “Total Fat IR(%)” value [2, 9] was 4.3% and 4.2%, the “BMI, After Administration” value [3] was 29.3 and the “BMI, Reduction” value [3] was 2.7%. For the same molecule, the “Body Fat, After Administration” value [3, 10] was 25.9, the “Body Fat, Change” value [3, 10] was -1.7 kg and the “Body Fat, Reduction” value [3, 10] was 6.2%. The “Body Fatness (body fat percentage), After Administration” value [3, 10] was 30.7, the Body Fatness (body fat percentage), Change [3, 10] was -1% and the “Body Fatness (body fat percentage), Reduction” value [3, 10] was 3.2%. The “Muscle Mass, After Administration” value [3, 10] was 55.5, the “Muscle Mass, Change” value [3, 10] was -0.7 kg and the “Muscle Mass, Reduction” value [3, 10] was 1.3%. For the same molecule, the “Weight, After Administration” value [3, 10] was 84.0 kg, the “Weight, Change” value [3, 10] was -3.0 kg and the “Weight, Reduction” value [3, 10] was 3.5%. The “Body Fat, Before Administration” value [3, 11] was 27.6, the “Body Fatness (body fat percentage), Before Administration” value [3, 11] was 31.7 and the “Muscle Mass, Before Administration” value [3, 11] was 56.2. For the same molecule, the “Weight, Before Administration” value [3, 11] was 87.0 kg, the “BMI, Before Administration” value ([3]; baseline) was 30.1 and the “Weight, day 0 after treatment” value ([4]; day 0, HFD (60% Kcal) mice, oral five times a week, n = 10, in g (unit assumed)) was 31.1 ± 1.5. The “Weight, day 11 after treatment” value ([4]; day 11, HFD (60% Kcal) mice, oral five times a week, n = 10, in g (unit assumed)) was 31.9 ± 1.6, the “Weight IR(%), day 11” value ([4]; day 11, vs. Vehicle Control (obese group)) was 5.6% and the “Weight, day 21 after treatment” value ([4]; day 21, HFD (60% Kcal) mice, oral five times a week, n = 10, in g (unit assumed)) was 34.5 ± 1.8. For the same molecule, the “Weight IR(%), day 21” value ([4]; day 21, vs. Vehicle Control (obese group)) was 5.8%, the “Weight, day 30 after treatment” value ([4]; day 30, HFD (60% Kcal) mice, oral five times a week, n = 10, in g (unit assumed)) was 36.1 ± 2.3 and the “Weight IR(%), day 30” value ([4]; day 30, vs. Vehicle Control (obese group)) was 8.8%. For the same molecule, the “Weight, day 39 after treatment” value ([4]; day 39, HFD (60% Kcal) mice, oral five times a week, n = 10, in g (unit assumed)) was 38.4 ± 2.7, the “Weight IR(%), day 39” value ([4]; day 39, vs. Vehicle Control (obese group)) was 9.6* % and the “Weight, day 51 after treatment” value ([4]; day 51, HFD (60% Kcal) mice, oral five times a week, n = 10, in g (unit assumed)) was 40.9 ± 3.1. The “Weight IR(%), day 51” value ([4]; day 51, vs. Vehicle Control (obese group)) was 9.6* %, the “Weight, day 56 after treatment” value ([4]; day 56, HFD (60% Kcal) mice, oral five times a week, n = 10, in g (unit assumed)) was 42.0 ± 3.4 and the “Weight IR(%) / weight loss, day 56 (last day)” value ([4]; day 56, vs. Vehicle Control (obese group)) was 9.4%. For the same molecule, the “Leptin IR(%)” value [5, 9] was 9.1% and 9.2%, the “Leptin (blood)” value ([5]; plasma, day 56, HFD mice) was 134.3 ng/mL and the “Triglyceride (blood)” value ([5]; plasma, day 56, HFD mice) was 74.7 mg/dL. For the same molecule, the “Triglyceride (blood) IR(%)” value ([5]; vs. Vehicle Control) was 22.3%.
